In patent US10272135B2, “Apolipoprotein O and fragments thereof for inducing apoptosis in a cancerous cell” (INSERM (INSTITUT NATIONAL DE LA SANTÉ ET DE LA RECHERCHE …, priority 2014, dated 2019):

Experiments:
Type in all cases: cell-based
H9c2 cardiac myoblasts [1] = assay: Measurement of O2 consumption (Oroboros Oxygraph-2k) in cardiac myoblasts; settings: for oxygen consumption: cells treated with 1 μM antimycin or 1.5 μg/ml oligomycin (FIG. 4B)
Source text: After ethical committee approval, all patients in this study gave written consent for sample collection and molecular analysis prior to inclusion. Patients were carefully selected by physicians from the Department of Cardiology, Toulouse University Hospital, prior to coronary by-pass surgery. Bioinformatics. Microarray expression data from human heart samples were downloaded from the GEO repository (GSE1145). This series consisted of 107 myocardial samples collected from patients undergoing cardiac transplantation whose failure arises from different etiologies (e.g. idiopathic dilated cardiomyopathy, ischemic cardiomyopathy, valvular cardiomyopathy, and hypertrophic cardiomyopathy) and from “normal” organ donors whose hearts cannot be used for transplants. Arrays were intensity normalized and hierarchical clustering (average group linkage, Pearson correlation, threshold r=0.8) was applied to identify groups of co-expressed genes. ApoO expression levels were plotted for the 107 human hearts tested and used to define relevant molecular pathways using both Toppgene and Ingenuity Pathway Analysis (Ingenuity systems, Redwood City, Calif., USA). ApoO subcellular localization was predicted using Mitopred, mitoprot and YLoc. Animals: All animal Studies followed the INSERM Institute Animal Facility guidelines and were approved by the animal care committees of the INSERM I2MC UMR 1048. All animal procedures were performed according to the guidelines of the French Ministry of Agriculture. Animals were housed at the Toulouse I2MC animal facility in a room lit 12 h per day (6 AM-6 PM) at an ambient temperature of 22+/−1° C. Construction of ApoO Expression Vectors To overexpress human ApoO (pTT-ApoO), the ApoO coding sequence was amplified using primers hApoO5BamPTT (SEQ ID NO: 2) and hApoO3BamPTT (SEQ ID NO: 3) and cloned into the BamH1 site of pTT expression vector. pSNAP-ApoO was generated by PCR amplification of pTT-ApoO using primers SnapApoEcorV-F (SEQ ID NO: 4) and SnapApoEcorV-R (SEQ ID NO: 5) and cloned into the EcoRV site of pSNAP-Tag® (Ozyme, Saint-Quentin-en-Yvelines, France). pGEX2T-ApoO was constructed by PCR amplification of pTT-ApoO using hApoOpGEX1FBam (SEQ ID NO: 6) and hApoOpGEX1RSma (SEQ ID NO: 7) and cloned into the Bam HI/Sma I site of pGEX2T (Promega, Charbonnières-les-Bains). All primers used in this work were synthesized by Eurogentec France (Angers). All restriction enzymes used were from New England Biolabs (Ozyme, Saint-Quentin-en-Yvelines). All ApoO sequences within the expression vectors were verified by DNA double strand sequencing using ABI PRISM®BigDye™ Terminator version 3.1 Ready reaction cycle sequencing kit (Life Technologies SAS, Villebon sur Yvette) and loaded on an ABI 3130XL DNA sequencing instrument (Life Technologies SAS, Villebon sur Yvette). Cell Culture and Tranfection of H9C2 Cardic Myoblasts H9c2 were obtained from the European Collection of Cell Cultures (Salisbury, England). H9c2 cells were cultured in Dulbecco's modified Eagle medium (Life Technologies SAS, Villebon sur Yvette) adjusted to contain 1.5 g/liter sodium bicarbonate and supplemented with antibiotic-antimycotic solution (Life Technologies SAS, Villebon sur Yvette) and 10% fetal bovine serum (FBS, AbCys s.a., Paris). Cells were plated on 10-cm diameter tissue culture dish and grown in a 5% CO2 incubator at 37° C. with saturating humidity with medium changes every 2 days. […]

Caspase-3 = Caspase-3 enzymatic activity in H9c2 cardiac myoblasts; settings: ApoO cells treated with both palmitate and oleate (FIG. 11c)
Source text: (§1) After ethical committee approval, all patients in this study gave written consent for sample collection and molecular analysis prior to inclusion. Patients were carefully selected by physicians from the Department of Cardiology, Toulouse University Hospital, prior to coronary by-pass surgery. Bioinformatics. Microarray expression data from human heart samples were downloaded from the GEO repository (GSE1145). This series consisted of 107 myocardial samples collected from patients undergoing cardiac transplantation whose failure arises from different etiologies (e.g. idiopathic dilated cardiomyopathy, ischemic cardiomyopathy, valvular cardiomyopathy, and hypertrophic cardiomyopathy) and from “normal” organ donors whose hearts cannot be used for transplants. Arrays were intensity normalized and hierarchical clustering (average group linkage, Pearson correlation, threshold r=0.8) was applied to identify groups of co-expressed genes. ApoO expression levels were plotted for the 107 human hearts tested and used to define relevant molecular pathways using both Toppgene and Ingenuity Pathway Analysis (Ingenuity systems, Redwood City, Calif., USA). ApoO subcellular localization was predicted using Mitopred, mitoprot and YLoc. Animals: All animal Studies followed the INSERM Institute Animal Facility guidelines and were approved by the animal care committees of the INSERM I2MC UMR 1048. All animal procedures were performed according to the guidelines of the French Ministry of Agriculture. Animals were housed at the Toulouse I2MC animal facility in a room lit 12 h per day (6 AM-6 PM) at an ambient temperature of 22+/−1° C. […] All ApoO sequences within the expression vectors were verified by DNA double strand sequencing using ABI PRISM®BigDye™ Terminator version 3.1 Ready reaction cycle sequencing kit (Life Technologies SAS, Villebon sur Yvette) and loaded on an ABI 3130XL DNA sequencing instrument (Life Technologies SAS, Villebon sur Yvette). […]

H9c2 cardiac myoblasts [2] = assay: Lipid profiling (FAME, diglycerides, triglycerides, BODIPY-palmitate) in cardiac myoblasts; settings: ApoO cells treated with both palmitate and oleate (FIG. 11a-b)
Source text: as §1

[3] = test system: long-chain acyl-CoA synthetase (ACSL); assay: Acyl-CoA synthetase activity in cardiac myoblasts; settings: ApoO cells treated with 5 μM triacsin C
Source text: After ethical committee approval, all patients in this study gave written consent for sample collection and molecular analysis prior to inclusion. Patients were carefully selected by physicians from the Department of Cardiology, Toulouse University Hospital, prior to coronary by-pass surgery. Bioinformatics. Microarray expression data from human heart samples were downloaded from the GEO repository (GSE1145). This series consisted of 107 myocardial samples collected from patients undergoing cardiac transplantation whose failure arises from different etiologies (e.g. idiopathic dilated cardiomyopathy, ischemic cardiomyopathy, valvular cardiomyopathy, and hypertrophic cardiomyopathy) and from “normal” organ donors whose hearts cannot be used for transplants. Arrays were intensity normalized and hierarchical clustering (average group linkage, Pearson correlation, threshold r=0.8) was applied to identify groups of co-expressed genes. […] All ApoO sequences within the expression vectors were verified by DNA double strand sequencing using ABI PRISM®BigDye™ Terminator version 3.1 Ready reaction cycle sequencing kit (Life Technologies SAS, Villebon sur Yvette) and loaded on an ABI 3130XL DNA sequencing instrument (Life Technologies SAS, Villebon sur Yvette). […]

For antimycin, the oxygen consumption (H9c2 cardiac myoblasts [1]) was “almost completely inhibited”.
`CC[C@H]1/C=C/C=C/C[C@@H](C)[C@H](O)[C@@](C)(O)C(=O)[C@@H](C)[C@H](O)[C@@H](C)C(=O)[C@@H](C)[C@H](O)[C@@H](C)/C=C/C(=O)O[C@@H]2[C@H](C)[C@H](CC1)O[C@]1(CC[C@H](C)[C@H](C[C@@H](C)O)O1)[C@H]2C` [oligomycin] was tested, and the oxygen consumption (H9c2 cardiac myoblasts [1]) was “partly inhibited”.
For `CCCCCCCC/C=C\CCCCCCCC(=O)O` [oleate, reference compound], the “decrease in Caspase-3 activity” value (Caspase-3) was 2 fold and the “decrease in diglyceride/triglyceride ratio” value (H9c2 cardiac myoblasts [2]) was 12 fold.
`N#CC(C#N)=NNc1cccc(Cl)c1` [CCCP, carbonyl cyanide m-chlorophenyl hydrazone] was tested, and the “increase in oxygen consumption” value (H9c2 cardiac myoblasts [1]; ApoO cells, addition of uncoupler 2 μM CCCP (FIG. 4B)) was 2 fold.
For `CCC/C=C/C/C=C/C=C/C=N/NN=O` [triacsin C, reference compound], the “ApoO-induced increase of ACSL activity” value [3] was “significantly reversed”.
